{"source": "patent EP0359505A1", "about": "“Dopamine-beta hydroxylase inhibitors” (SMITHKLINE BEECHAM CORPORATION, priority 1988, dated 1990)", "key": {"[1]": {"system": "spontaneously hypertensive rats", "assay": "mean arterial blood pressure in spontaneously hypertensive rats, indwelling cannulae in the tail arteries", "type": "in vivo", "conditions": "100 mg/kg orally", "method": "Further, spontaneously hypertensive rats were treated with 3-mercapto-4-benzyl-5-(4-pyridyl)-1,2,4-triazole at a dose of 100 mg/kg orally and mean arterial blood pressure was monitored for 250 minutes using indwelling cannulae in the tail arteries. […] The maximal blood pressure reduction was approximately 25 mmHg."}, "[2]": {"conditions": "see Teresawa et al.; cited from earlier work"}, "[3]": {"molecular_target": "T1, DBH (Homo sapiens, UniProt P09172)", "T1 sequence (P09172 1-617)": "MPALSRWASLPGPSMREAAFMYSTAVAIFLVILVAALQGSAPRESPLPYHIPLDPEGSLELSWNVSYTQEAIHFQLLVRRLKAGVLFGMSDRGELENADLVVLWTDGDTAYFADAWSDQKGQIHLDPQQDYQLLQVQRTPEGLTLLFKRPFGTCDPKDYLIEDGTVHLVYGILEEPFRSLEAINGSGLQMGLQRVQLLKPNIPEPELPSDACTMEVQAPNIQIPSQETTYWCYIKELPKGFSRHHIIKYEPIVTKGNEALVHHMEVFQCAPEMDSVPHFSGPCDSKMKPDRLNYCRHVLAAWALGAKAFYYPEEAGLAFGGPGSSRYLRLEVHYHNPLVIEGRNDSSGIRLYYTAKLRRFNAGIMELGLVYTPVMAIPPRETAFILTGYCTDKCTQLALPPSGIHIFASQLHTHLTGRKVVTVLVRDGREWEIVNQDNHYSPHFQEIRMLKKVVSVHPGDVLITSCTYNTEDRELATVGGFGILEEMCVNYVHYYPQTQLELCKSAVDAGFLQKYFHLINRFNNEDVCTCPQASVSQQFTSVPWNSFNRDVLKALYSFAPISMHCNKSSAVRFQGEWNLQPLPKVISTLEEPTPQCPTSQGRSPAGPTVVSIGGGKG", "conditions": "as reported by Runti et al.; cited from earlier work"}}}
{"compound": "Sc1nnc(-c2ccncc2)n1Cc1ccccc1", "note": "[3-Mercapto-4-benzyl-5-(4-pyridyl)-1,2,4-triazole]", "values": [{"measurement": "blood pressure compared to vehicle-treated controls", "setting": "[1]; between 80 and 240 minutes following treatment", "result": "significant blood pressure reductions"}, {"measurement": "maximal blood pressure reduction", "setting": "[1]; mean arterial blood pressure monitored for 250 minutes, compared to vehicle-treated controls", "result": "approximately 25 mmHg"}]}
{"compound": "CCCCc1ccc(C(=O)O)nc1", "note": "[Fusaric acid]", "values": [{"measurement": "toxic effects", "setting": "[2]", "result": "hepatotoxic"}]}
{"compound": "phenylpicolinic acid", "values": [{"measurement": "inhibitory activity relative to fusaric acid", "setting": "[3]", "result": "twice the inhibitory activity of fusaric acid"}]}
